Like-named read-outs stand apart in the source and are kept apart here.
Tested on: HIV-1 (NL4-3 strain)
Experiment: Assay for inhibition of HIV replication (VIKING; MT4-gag-GFP reporter cell line)
Format: cell-based
Procedure: This assay is a kinetic assay that employs a reporter cell line (MT4-gag-GFP) to quantify the number of new cells infected in each round of replication.
MT4-GFP cells (250,000 cells/ml) were bulk-infected with HIV-1 (NL4-3 strain) at low multiplicity of infection (MOI) in RPMI cell culture medium+10% FBS for 24 hours. Cells were then washed once in RPMI cell culture medium+10% FBS and resuspended in RPMI cell culture medium+0% or 10% or 100% normal human serum (NHS). Test compounds were serial-diluted in DMSO on an ECHO® liquid handler. The infected MT4-GFP cells were added to a 384-well poly-D-lysine coated black plate with clear bottom in which the diluted test compounds were placed. The cells were seeded at 8,000 cells per well and the final DMSO concentration was 0.4%. The infected cells (Green GFP cells) were quantified at both 24 and 48 hours post incubation using Acumen eX3. Viral reproductive ratio (R0) was determined using the number of infected cells at 48 hours divided by the number of infected cells at 24 hours. Percent viral growth inhibition was calculated by [1−(R−Rtripledrug)/(RDMSO−Rtripledrug)]*100. Compound potency IP or IC50 was determined by a 4-parameter dose response curve analysis. In vitro potency in the cell-based assay in the abscence of normal human serum (NHS) and the presence of 100% NHS.

[1] = Human immunodeficiency virus 1, NL43, MT4-GFP cells infected with HIV-1 NL4-3, 0% normal human serum (NHS), read-out: VIKING IP50 (nM) with 0% NHS
[2] = Human immunodeficiency virus 1, NL43, MT4-GFP cells infected with HIV-1 NL4-3, 100% normal human serum (NHS), read-out: VIKING IP50 (nM) with 100% NHS
[3] = MT4-GFP cells infected with HIV-1 NL4-3, 0% normal human serum (NHS), read-out: VIKING IP50 (nM) with 0% NHS
[4] = MT4-GFP cells infected with HIV-1 NL4-3, 100% normal human serum (NHS), read-out: VIKING IP50 (nM) with 100% NHS

| SMILES | IC50 [1] [nM] | IC50 [2] [nM] | IC50 [3] [nM] | IC50 [4] [nM] |
| --- | --- | --- | --- | --- |
| C[C@H]1COC2C3CCc4c(C(=O)NCc5cccc(Cl)c5F)c(=O)c(O)c(n43)C(=O)N21 (stereo partly drawn) [Compound 30] | 0.536 | 838 | – | – |
| O=C1c2c(O)c(=O)c(-c3cnn(Cc4ccc(F)cc4F)c3)c3n2C(CC3)C2OCCN12 (stereo not drawn) [Compound 46] | 34.5 | 222 | – | – |
| C[C@@H]1CCOC2C3CCc4c(C(=O)NCc5ccc(F)cc5F)c(=O)c(O)c(n43)C(=O)N21 (stereo partly drawn) [Compound 60] | 0.934 | 27.6 | – | – |
| COC1CC2C3OCCN3C(=O)c3c(O)c(=O)c(C(=O)NCc4ccc(F)cc4F)c1n32 (stereo not drawn) [Compound 72] | – | – | 0.754 | 8000 |
| CC1C2C3CCc4c(C(=O)NCc5cccc(Cl)c5F)c(=O)c(O)c(n43)C(=O)N2C[C@@H]1C (stereo partly drawn) [Compound 102] | – | – | 1.05 | 579 |
| C[C@H]1CN(S(C)(=O)=O)C2C3CCc4c(C(=O)NCc5cccc(Cl)c5F)c(=O)c(O)c(n43)C(=O)N21 (stereo partly drawn) [Compound 116] | – | – | 4.57 | 195 |

Reference: patent US11358711B2, “Tetracyclic heterocycle compounds useful as HIV integrase inhibitors” (Merck Sharp & Dohme Corp., priority 2019, dated 2022)
